# Measurements published in patent publication US10508077B2 (FORMA Therapeutics, Inc., priority 2015, dated 2019).
# Molecular target: T1, Full length human recombinant HDAC8 protein (Homo sapiens, UniProt Q9BY41)
# T1 construct: Full length human recombinant HDAC8 protein was expressed in baculoviral system; made in house
# T1 sequence (Q9BY41 1-377): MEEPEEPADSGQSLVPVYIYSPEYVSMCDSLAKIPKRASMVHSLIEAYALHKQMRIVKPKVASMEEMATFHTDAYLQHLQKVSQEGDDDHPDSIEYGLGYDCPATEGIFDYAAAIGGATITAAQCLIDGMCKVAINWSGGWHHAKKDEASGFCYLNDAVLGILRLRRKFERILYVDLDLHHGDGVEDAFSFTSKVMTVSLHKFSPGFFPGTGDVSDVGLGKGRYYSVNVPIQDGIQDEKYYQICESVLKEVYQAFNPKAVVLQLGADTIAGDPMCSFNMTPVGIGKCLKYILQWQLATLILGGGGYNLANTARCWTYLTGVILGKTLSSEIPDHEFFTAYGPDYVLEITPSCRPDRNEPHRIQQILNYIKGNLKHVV
# Assay: In vitro histone deacetylase assay: enzymatic HDAC8 assay, electrophoretic mobility shift
# Format: biochemical
# Conditions: substrate RHKK(Ac)-NH2, 1 nM enzyme, compounds listed under IC50 range headings
# How it was run: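 Readout was microfluidic mobility-shift separation of deacetylated product from fluorescent RHKK(Ac)-NH2 substrate (2 µM), after reaction with 1 nM recombinant full-length human HDAC8 at 25 °C, pH 7.5, stopped with SDS. Twelve 3-fold-spaced concentrations tested; product/sum ratios normalized to controls and fitted with a 4-parameter model for IC50.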
row,SMILES,IC50 [nM]
1,"O=C(/C=C/c1ccccc1C(=O)N1CCC2(CC1)OCc1ccccc12)NO [II-9, (E)-3-(2-(3H-spiro[isobenzofuran-1,4′-piperidine]-1′-carbonyl)phenyl)-N-hydroxyacrylamide]",1000 to 10000
2,"O=C(/C=C/c1ccccc1C(=O)N1CC(N2CCS(=O)(=O)CC2)C1)NO [II-10, (E)-3-(2-(3-(1,1-dioxidothiomorpholino)azetidine-1-carbonyl)phenyl)-N-hydroxyacrylamide]",1000 to 10000
3,"COCC1(N(C)C(=O)c2ccccc2/C=C/C(=O)NO)CC1 [II-11, (E)-2-(3-(hydroxyamino)-3-oxoprop-1-en-1-yl)-N-(1-(methoxymethyl)cyclopropyl)-N-methylbenzamide]",1000 to 10000
4,"O=C(/C=C/c1ccccc1C(=O)N1C2CCC1CC2)NO [II-12, (E)-3-(2-(7-azabicyclo[2.2.1]heptane-7-carbonyl)phenyl)-N-hydroxyacrylamide]",1000 to 10000
5,"O=C(/C=C/c1ccccc1C(=O)NC1CCCCC1)NO [II-13, (E)-N-cyclohexyl-2-(3-(hydroxyamino)-3-oxoprop-1-en-1-yl)benzamide]",< 1000
6,"CCCCc1ccc(NC(=O)c2ccccc2/C=C/C(=O)NO)cc1 [II-14, (E)-N-(4-butylphenyl)-2-(3-(hydroxyamino)-3-oxoprop-1-en-1-yl)benzamide]",< 1000
7,"O=C(/C=C/c1ccccc1C(=O)N1CCCCC1)NO [II-16, (E)-N-hydroxy-3-(2-(piperidine-1-carbonyl)phenyl)acrylamide]",< 1000
8,"O=C(/C=C/c1ccccc1C(=O)N1CCC(F)(F)CC1)NO [II-17, (E)-3-(2-(4,4-difluoropiperidine-1-carbonyl)phenyl)-N-hydroxyacrylamide]",< 1000
9,CN(Cc1cccc(C(F)(F)F)c1)C(=O)c1ccccc1/C=C/C(=O)NO [II-18],< 1000
10,"O=C(/C=C/c1ccccc1C(=O)N1CCN(c2ccccc2)CC1)NO [II-19, (E)-N-hydroxy-3-(2-(4-phenylpiperazine-1-carbonyl)phenyl)acrylamide]",< 1000
11,O=C(/C=C/c1ccccc1C(=O)N1CCN(c2ccncc2)CC1)NO [II-20],< 1000
12,"O=C(/C=C/c1ccccc1C(=O)N1CCN(CCc2ccccc2)CC1)NO [II-21, (E)-N-hydroxy-3-(2-(4-phenethylpiperazine-1-carbonyl)phenyl)acrylamide]",< 1000
13,"O=C(/C=C/c1ccccc1C(=O)N1CCC(C(F)(F)F)CC1)NO [II-23, (E)-N-hydroxy-3-(2-(4-(trifluoromethyl)piperidine-1-carbonyl)phenyl)acrylamide]",< 1000
14,"O=C(/C=C/c1ccccc1C(=O)N1CCS(=O)(=O)CC1)NO [II-24, (E)-3-(2-(1,1-dioxidothiomorpholine-4-carbonyl)phenyl)-N-hydroxyacrylamide]",< 1000
15,"Cn1cc2c(n1)CCN(C(=O)c1ccccc1/C=C/C(=O)NO)C2 [II-25, (E)-N-hydroxy-3-(2-(2-methyl-4,5,6,7-tetrahydro-2H-pyrazolo[4,3-c]pyridine-5-carbonyl)phenyl)acrylamide]",< 1000
16,"Cc1nnc(C)n1C1CCN(C(=O)c2ccccc2/C=C/C(=O)NO)CC1 [II-26, (E)-3-(2-(4-(3,5-dimethyl-4H-1,2,4-triazol-4-yl)piperidine-1-carbonyl)phenyl)-N-hydroxyacrylamide]",< 1000
17,"O=C(/C=C/c1ccccc1S(=O)(=O)C1CCN(Cc2ccccc2)CC1)NO [II-30, (E)-3-(2-((1-benzylpiperidin-4-yl)sulfonyl)phenyl)-N-hydroxyacrylamide]",< 1000
18,"O=C(/C=C/c1ccccc1C(=O)Nc1cccc(C(F)(F)F)c1)NO [II-36, (E)-2-(3-(hydroxyamino)-3-oxoprop-1-en-1-yl)-N-(3-(trifluoromethyl)phenyl)benzamide]",< 1000

# Molecular target: T2, Recombinant N-terminal GST tag full-length human HDAC8 (Homo sapiens, UniProt Q9BY41)
# T2 construct: Recombinant N-terminal GST tag full-length human HDAC8; purchased SignalChem H90-30G-1000; host or cells: Sf9 insect cells (baculovirus)
# T2 sequence (Q9BY41 1-377): T1 sequence (Q9BY41 1-377)
# Assay: HDAC8 probe binding assay, time resolved fluorescence (TRF)
# Conditions: fluorescein labeled pan-HDAC inhibitor probe, 16 hours incubation, compounds listed under IC50 range headings
# Description: The HDAC8 probe binding assay was performed using a time resolved fluorescence (TRF) assay format. Recombinant N-terminal GST tag full-length human HDAC8 was expressed and purified from baculovirus in Sf9 insect cells (SignalChem, #H90-30G-1000), Each assay was performed in 1536 black well microplates (Corning, #3936) in a final volume of 4 μL in assay buffer containing 50 mM HEPES (pH 7.5), 50 mM KCl, 50 mM NaCl, 0.5 mM GSH (L-Glutathione reduced, Sigma #G4251), 0.03% BGG (0.22 μM filtered, Sigma, #G7516-25G), and 0.01% Triton X-100 (Sigma, #T9284-10L). 20 nL of 10-point, 3-fold serial dilution in DMSO was pre-dispensed into respective wells of 1536 assay plates for a final test concentration range of 25 μM to 1.3 nM respectively. The final concentration in the assay of HDAC8 and probe (a fluorescein labeled pan-HDAC inhibitor) was 2.5 nM and 1.5 nM respectively. 2 μL of 2× probe and 2× anti-GST Terbium (Cisbio, #61GSTXLB) was added to assay plates followed by 2 μL of 2× HDAC8. Plates were incubated for 16 hours at room temperature before time resolved fluorescence was read on the Envision (Excitation at 340 nm, and Emission at 485 nm and 535 nm, Perkin Elmer).
# Data from HDAC8 Assays were reported as percent inhibition (inh) compared with control wells based on the following equation: % inh=1−((FLU−AveLow)/(AveHigh−AveLow)) where FLU=measured time resolved fluorescence. AveLow=average time resolved fluorescence of no enzyme control (n=32). AveHigh=average time resolved fluorescence of DMSO control (n=32). IC50 values were determined by curve fitting of the standard 4 parameter logistic fitting algorithm included in the Activity Base software package: IDBS XE Designer Model205. Data is fitted using the Levenburg Marquardt algorithm.
row,SMILES,IC50 [nM]
1,"O=C(/C=C/c1ccccc1N1CCN(Cc2ccccc2)CC1=O)NO [Example I-495, (E)-3-(2-(4-benzyl-2-oxopiperazin-1-yl)phenyl)-N-hydroxyacrylamide]",≤ 1000
2,"O=C(/C=C/c1ccccc1N1CCN(c2ccc(F)cc2)C1=O)NO [Example I-501, (E)-3-(2-(3-(4-fluorophenyl)-2-oxoimidazolidin-1-yl)phenyl)-N-hydroxyacrylamide]",≤ 1000
3,"O=C(/C=C/c1ccccc1N1CCN(c2ccc(OC(F)(F)F)cc2)CC1=O)NO [Example I-503, (E)-N-hydroxy-3-(2-(2-oxo-4-(4-(trifluoromethoxy)phenyl)piperazin-1-yl)phenyl)acrylamide]",≤ 1000
4,"O=C(/C=C/c1ccccc1N1CCN(c2ccc(F)cc2)CC1=O)NO [Example I-504, (E)-3-(2-(4-(4-fluorophenyl)-2-oxopiperazin-1-yl)phenyl)-N-hydroxyacrylamide]",≤ 1000
5,"COc1cc(F)ccc1Oc1ccccc1C(=O)Nc1ccccc1/C=C/C(=O)NO [Example I-546, (E)-2-(4-fluoro-2-methoxyphenoxy)-N-(2-(3-(hydroxyamino)-3-oxoprop-1-en-1-yl)phenyl)benzamide]",≤ 1000
6,"Cn1cc(Oc2ccccc2C(=O)Nc2ccccc2/C=C/C(=O)NO)cn1 [Example I-548, N-{2-[(1E)-2-(hydroxycarbamoyl)eth-1-en-1-yl]phenyl}-2-[(1-methyl-1H-pyrazol-4-yl)oxy]benzamide]",≤ 1000
7,"O=C(/C=C/c1cc(Cl)ccc1NC(=O)c1ccccc1Oc1ccc(F)cc1)NO [Example I-549, N-{4-chloro-2-[(1E)-2-(hydroxycarbamoyl)eth-1-en-1-yl]phenyl}-2-(4-fluorophenoxy)benzamide]",≤ 1000
8,"CC(C)(C)OC(=O)N1CCCC12CN(c1ccccc1/C=C/C(=O)NO)C2 [Example I-550, tert-butyl (E)-2-(2-(3-(hydroxyamino)-3-oxoprop-1-en-1-yl)phenyl)-2,5-diazaspiro[3.4]octane-5-carboxylate]",≤ 1000
9,"COc1ccc(F)cc1Oc1ccccc1C(=O)Nc1ccccc1/C=C/C(=O)NO [Example I-551, 2-(5-fluoro-2-methoxyphenoxy)-N-{2-[(1E)-2-(hydroxycarbamoyl)eth-1-en-1-yl]phenyl}benzamide]",≤ 1000
10,"COc1cccc(Oc2ccccc2C(=O)Nc2ccccc2/C=C/C(=O)NO)c1 [Example I-552, N-{2-[(1E)-2-(hydroxycarbamoyl)eth-1-en-1-yl]phenyl}-2-(3-methoxyphenoxy)benzamide]",≤ 1000
11,"COc1cnccc1Oc1ccccc1C(=O)Nc1ccccc1/C=C/C(=O)NO [Example I-553, N-{2-[(1E)-2-(hydroxycarbamoyl)eth-1-en-1-yl]phenyl}-2-[(3-methoxypyridin-4-yl)oxy]benzamide]",≤ 1000
12,"O=C(/C=C/c1ccccc1N1CCCC12CN(C(=O)c1ccc(F)cc1)C2)NO [Example I-554, (E)-3-(2-(2-(4-fluorobenzoyl)-2,5-diazaspiro[3.4]octan-5-yl)phenyl)-N-hydroxyacrylamide]",1000 to 100000
13,"O=C(/C=C/c1cc(F)ccc1NC(=O)c1ccccc1Oc1ccc(F)cc1)NO [Example I-555, N-{4-fluoro-2-[(1E)-2-(hydroxycarbamoyl)eth-1-en-1-yl]phenyl}-2-(4-fluorophenoxy)benzamide]",≤ 1000
14,"Cn1cc(Oc2ccccc2C(=O)Nc2ccc(F)cc2/C=C/C(=O)NO)cn1 [Example I-558, N-{4-fluoro-2-[(1E)-2-(hydroxycarbamoyl)eth-1-en-1-yl]phenyl}-2-[(1-methyl-1H-pyrazol-4-yl)oxy]benzamide]",≤ 1000
15,COc1ccc(Oc2ccccc2C(=O)Nc2ccccc2/C=C/C(=O)NO)cc1 [Example I-559],≤ 1000
16,"Cc1ccc(Oc2ccccc2C(=O)Nc2ccc(Cl)cc2/C=C/C(=O)NO)cn1 [Example I-560, N-{4-chloro-2-[(1E)-2-(hydroxycarbamoyl)eth-1-en-1-yl]phenyl}-2-[(6-methylpyridin-3-yl)oxy]benzamide]",≤ 1000
